The results in this text go back to paper PMC5271583 (Bioorganic & medicinal chemistry letters, 2016).

Read-outs that look alike come from different tables or passages of the source.

What all share (format): cell-based, rodent
One experiment deals with CRAC channel (Rattus norvegicus, UniProt Q5M848). Description: Inhibition of Ca2+ influx in thapsigargin-activated RBL-2H3 mast cells. Conditions: for inhibition at 100 µM: RBL-2H3, read-out: Inhibition of Ca2+ influx at 100 µM (no IC50).
The next experiment concerns TNFα. Description: TNFα protein secretion by thapsigargin-activated RBL cells, ELISA. Conditions: 4 h, read-out: IC50 (µM) TNFα. (In general: ELISA stands for enzyme-linked immunosorbent assay.)
For another experiment, the system named is NFAT-c1. Conditions: 10 µM and higher concentrations.
Another experiment concerns RBL-2H3 cells. Put plainly: β-hexosaminidase release. Conditions: highest concentration tested.

Sequence of CRAC channel (Q5M848 whole entry): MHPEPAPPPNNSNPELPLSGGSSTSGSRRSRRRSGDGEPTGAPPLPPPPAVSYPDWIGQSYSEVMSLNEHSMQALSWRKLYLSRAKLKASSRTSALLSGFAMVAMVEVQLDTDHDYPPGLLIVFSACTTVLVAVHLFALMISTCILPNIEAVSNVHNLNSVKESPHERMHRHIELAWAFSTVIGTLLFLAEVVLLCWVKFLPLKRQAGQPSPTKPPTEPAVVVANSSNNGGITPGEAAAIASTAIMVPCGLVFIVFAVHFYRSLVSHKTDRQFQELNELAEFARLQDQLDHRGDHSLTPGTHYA

Consider `O=C(Nc1nn(Cc2ccc(Cl)cc2Cl)c2ccccc12)c1ccc(F)cc1F` [Compound 9f], for which, on CRAC channel, the inhibition (usually the relative decrease from the control value, in per cent) at 100 µM was less than 50%.

Take `O=C(Nc1ccccc1F)c1nn(Cc2ccc(Cl)cc2Cl)c2ccccc12` [Compound 12c]: on CRAC channel, the concentration for half-maximal inhibition (IC50) (as a rule, the concentration that inhibits the measured activity by half) was greater than 30 µM.

`O=C(Nc1cnns1)c1nn(Cc2ccc(Cl)cc2Cl)c2ccccc12` [Compound 12h]: the inhibition at 100 µM on CRAC channel was less than 50%.

Regarding `O=C(Nc1nn(Cc2ccc(Cl)cc2Cl)c2ccccc12)c1c(F)cccc1F` [Compound 9a], on CRAC channel, the inhibition at 100 µM was less than 50%. Turning to `O=C(Nc1ccc(F)cc1F)c1nn(Cc2ccc(Cl)cc2Cl)c2ccccc12` [Compound 12e], the 50% inhibitory concentration (IC50) with TNFα came to 0.64 µM. For the compound “N-[1-[(2,4-dichlorophenyl)methyl]indazol-3-yl]-3-fluoro-pyridine-4-carboxamide [Compound 12d]”, the “Level of nuclear NFAT (in words)” value with NFAT-c1 is reported as “restore the levels of nuclear NFAT to that of resting MCs”. For the same compound, the IC50 on CRAC channel (read-out: IC50 (µM) Ca2+ influx, Table 3, SD <20%) is 0.67 µM; on CRAC channel (read-out: IC50 (µM), inhibition of Ca2+ influx, indazole derivatives, Table 1, RBL-2H3 cells activated with Tg 1 µM, SD <35%), 0.67 µM. Further, the “Inhibition of β-hex release (in words)” value in the experiment with RBL-2H3 cells was “nearly complete inhibition of β-hex release”. On CRAC channel, `Cc1nnsc1C(=O)Nc1nn(Cc2ccc(Cl)cc2Cl)c2ccccc12` [Compound 9e] showed an IC50 greater than 30 µM. Further, the inhibition at 30 µM on CRAC channel (RBL-2H3, read-out: Inhibition of Ca2+ influx at 30 µM) was roughly 50%.
